According to ChEMBL document CHEMBL1139533, “Structure-activity relationship studies of a series of antiviral and antibacterial aglycon derivatives of the glycopeptide antibiotics vancomycin, eremomycin, and dechloroeremomycin” (J Med Chem, 2005):
Converted amounts (≈) assume the structure as drawn.

What was measured:
[1] = system: Staphylococcus epidermidis; assay: Minimum inhibitory concentration against 533 Staphylococcus epidermidis; assay type: functional
C3H/3T3 = assay: Minimal cytotoxic concentration to cause an alteration in C3H/3T3 cell line morphology; assay type: functional; conditions: Mus musculus
Enterococcus faecalis [2] = assay: Minimum inhibitory concentration against 559 glycopeptide susceptible enterococci Enterococcus faecalis; assay type: functional
Enterococcus faecium [3] = assay: Minimum inhibitory concentration against glycopeptide resistant enterococci 569 Enterococcus faecium; assay type: functional
Enterococcus faecalis [4] = assay: Minimum inhibitory concentration against glycopeptide resistant enterococci 560 Enterococcus faecalis; assay type: functional
Enterococcus faecium [5] = assay: Minimum inhibitory concentration against glycopeptide susceptible enterococci 568 Enterococcus faecium; assay type: functional
[6] = system: Staphylococcus haemolyticus; assay: Minimum inhibitory concentration against 602 Staphylococcus haemolyticus; assay type: functional
Staphylococcus aureus [7] = assay: Minimum inhibitory concentration against glycopeptide intermediate-resistant 3797 Staphylococcus aureus; assay type: functional
Staphylococcus aureus [8] = assay: Minimum inhibitory concentration against glycopeptide intermediate-resistant 3798 Staphylococcus aureus; assay type: functional
MOLT-4 = assay: Cytostatic activity to the compound against Molt4/C8 cell line; assay type: functional, cell-based; conditions: Homo sapiens
[9] = system: Human immunodeficiency virus 2; assay: Effective concentration against human immunodeficiency virus type 2; assay type: functional, organism-based
[10] = system: Human immunodeficiency virus 1; assay: Effective concentration against human immunodeficiency virus type 1; assay type: functional, organism-based
CCRF-CEM = assay: Cytostatic activity to the compound against CEM cell line; assay type: functional, cell-based; conditions: Homo sapiens
L1210 = assay: Cytostatic activity against L1210 cell line; assay type: functional, cell-based; conditions: Mus musculus
[11] = system: Moloney murine sarcoma virus; assay: Effective concentration against Moloney sarcoma virus; assay type: functional, organism-based, Viruses

Structure (SMILES)	MIC [1]	MCC (C3H/3T3)	MIC (Enterococcus faecalis [2])	MIC (Enterococcus faecium [3])	MIC (Enterococcus faecalis [4])	MIC (Enterococcus faecium [5])	MIC [6]	MIC (Staphylococcus aureus [7])	MIC (Staphylococcus aureus [8])	IC50 (MOLT-4)	EC50 [9]	EC50 [10]	IC50 (CCRF-CEM)	IC50 (L1210)	EC50 [11]
CN[C@H](CC(C)C)C(=O)N[C@H]1C(=O)N[C@@H](CC(N)=O)C(=O)N[C@H]2C(=O)N[C@H]3C(=O)N[C@H](C(=O)N[C@H](C(=O)NC4C5CC6CC(C5)CC4C6)c4cc(O)cc(O)c4-c4cc3ccc4O)[C@H](O)c3ccc(cc3)Oc3cc2cc(c3O)Oc2ccc(cc2Cl)[C@H]1O (stereo not given in full)	16 µg/mL (≈ 12.9 µM)	20 µg/mL	8 µg/mL (≈ 6.44 µM)	32 µg/mL (≈ 25.7 µM)	32 µg/mL (≈ 25.7 µM)	16 µg/mL (≈ 12.9 µM)	16 µg/mL (≈ 12.9 µM)	16 µg/mL (≈ 12.9 µM)	16 µg/mL (≈ 12.9 µM)	> 250 µM	20 µM	8.5 µM	> 250 µM	> 250 µM	> 4 µM
CN[C@H](CC(C)C)C(=O)N[C@H]1C(=O)N[C@@H](CC(N)=O)C(=O)N[C@H]2C(=O)N[C@H]3C(=O)N[C@H](C(=O)N[C@H](C(=O)NC4C5CC6CC(C5)CC4C6)c4cc(O)cc(O)c4-c4cc3ccc4O)[C@H](O)c3ccc(c(Cl)c3)Oc3cc2cc(c3O)Oc2ccc(cc2Cl)[C@H]1O (stereo not given in full) [listing 1 of 2 here]										≥ 250 µM	8.5 µM	3 µM	> 250 µM	≥ 250 µM	13 µM
CN[C@H](CC(C)C)C(=O)N[C@H]1C(=O)N[C@@H](CC(N)=O)C(=O)N[C@H]2C(=O)N[C@H]3C(=O)N[C@H](C(=O)N[C@H](C(=O)NC4C5CC6CC(C5)CC4C6)c4cc(O)cc(O)c4-c4cc3ccc4O)[C@H](O)c3ccc(c(Cl)c3)Oc3cc2cc(c3O)Oc2ccc(cc2Cl)[C@H]1O (stereo not given in full) [listing 2 of 2 here]	4 µg/mL (≈ 3.13 µM)	100 µg/mL	2 µg/mL (≈ 1.57 µM)	32 µg/mL (≈ 25.1 µM)	32 µg/mL (≈ 25.1 µM)	2 µg/mL (≈ 1.57 µM)	4 µg/mL (≈ 3.13 µM)	4 µg/mL (≈ 3.13 µM)	4 µg/mL (≈ 3.13 µM)						
CN[C@H](CC(C)C)C(=O)N[C@H]1C(=O)N[C@@H](CC(N)=O)C(=O)N[C@H]2C(=O)N[C@H]3C(=O)N[C@H](C(=O)N[C@H](C(=O)NCCCCCCCCCCN)c4cc(O)cc(O)c4-c4cc3ccc4O)[C@H](O)c3ccc(cc3)Oc3cc2cc(c3O)Oc2ccc(cc2Cl)[C@H]1O	8 µg/mL (≈ 6.33 µM)	20 µg/mL	8 µg/mL (≈ 6.33 µM)	32 µg/mL (≈ 25.3 µM)	32 µg/mL (≈ 25.3 µM)	8 µg/mL (≈ 6.33 µM)	8 µg/mL (≈ 6.33 µM)	8 µg/mL (≈ 6.33 µM)	8 µg/mL (≈ 6.33 µM)	196 µM	25 µM	8.5 µM	202 µM	≥ 250 µM	> 4 µM
CN[C@H](CC(C)C)C(=O)N[C@H]1C(=O)N[C@@H](CC(N)=O)C(=O)N[C@H]2C(=O)N[C@H]3C(=O)N[C@H](C(=O)N[C@H](C(=O)O)c4cc(O)cc(O)c4-c4cc3ccc4O)[C@H](O)c3ccc(c(Cl)c3)Oc3cc2cc(c3O)Oc2ccc(cc2Cl)[C@H]1O [listing 1 of 2 here]										> 500 µM	≥ 250 µM	65 µM	> 500 µM	> 500 µM	100 µM
CN[C@H](CC(C)C)C(=O)N[C@H]1C(=O)N[C@@H](CC(N)=O)C(=O)N[C@H]2C(=O)N[C@H]3C(=O)N[C@H](C(=O)N[C@H](C(=O)O)c4cc(O)cc(O)c4-c4cc3ccc4O)[C@H](O)c3ccc(c(Cl)c3)Oc3cc2cc(c3O)Oc2ccc(cc2Cl)[C@H]1O [listing 2 of 2 here]	4 µg/mL (≈ 3.5 µM)	> 100 µg/mL	2 µg/mL (≈ 1.75 µM)	> 64 µg/mL	> 64 µg/mL	4 µg/mL (≈ 3.5 µM)	8 µg/mL (≈ 6.99 µM)	4 µg/mL (≈ 3.5 µM)	4 µg/mL (≈ 3.5 µM)						
NCCCCCCCCCCNC(=O)[C@H]1NC(=O)[C@H]2NC(=O)[C@H](NC(=O)[C@@H]3NC(=O)[C@H](CC(N)=O)NC(=O)[C@H](N)[C@H](O)c4ccc(cc4)Oc4cc3cc(c4O)Oc3ccc(cc3)[C@H]2O)c2ccc(O)c(c2)-c2c(O)cc(O)cc21	> 32 µg/mL	≥ 20 µg/mL	> 64 µg/mL	> 64 µg/mL	> 64 µg/mL	> 64 µg/mL	> 32 µg/mL	> 32 µg/mL	> 32 µg/mL	144 µM	> 25 µM	> 25 µM	106 µM	≥ 250 µM	7.8 µM
CN[C@H](CC(C)C)C(=O)N[C@H]1C(=O)N[C@@H](CC(N)=O)C(=O)N[C@H]2C(=O)N[C@H]3C(=O)N[C@H](C(=O)N[C@H](C(=O)NCC45CC6CC(CC(C6)C4)C5)c4cc(O)cc(O)c4-c4cc3ccc4O)[C@H](O)c3ccc(c(Cl)c3)Oc3cc2cc(c3O)Oc2ccc(cc2Cl)[C@H]1O [listing 1 of 2 here]										72 µM	9.5 µM	3 µM	≥ 250 µM	≥ 250 µM	10 µM
CN[C@H](CC(C)C)C(=O)N[C@H]1C(=O)N[C@@H](CC(N)=O)C(=O)N[C@H]2C(=O)N[C@H]3C(=O)N[C@H](C(=O)N[C@H](C(=O)NCC45CC6CC(CC(C6)C4)C5)c4cc(O)cc(O)c4-c4cc3ccc4O)[C@H](O)c3ccc(c(Cl)c3)Oc3cc2cc(c3O)Oc2ccc(cc2Cl)[C@H]1O [listing 2 of 2 here]	2 µg/mL (≈ 1.55 µM)	≥ 100 µg/mL	1 µg/mL (≈ 0.774 µM)	16 µg/mL (≈ 12.4 µM)	16 µg/mL (≈ 12.4 µM)	2 µg/mL (≈ 1.55 µM)	2 µg/mL (≈ 1.55 µM)	2 µg/mL (≈ 1.55 µM)	2 µg/mL (≈ 1.55 µM)						
